Reference: patent US12065445B2, “CDK2 inhibitors and methods of using the same” (Cedilla Therapeutics, Inc., priority 2021, dated 2024)

System: Kuramochi cells
Assay: BrdU Cell Proliferation Assay
Format: cell-based
Details: read-out: BrdU - KURAMOCHI.1: IC50
Method: A BrdU assay was used as a measure of proliferation based on the DNA replication process of proliferating cells. BrdU, a pyrimidine analog, is added to the cell culture and incorporated into the DNA of proliferating cells. The presence of the BrdU analog was then measured through a colorimetric ELISA. After fixation and permeabilization of cells, peroxidase-conjugated antibody recognizing BrdU is added and allowed to incubate, followed by thorough washing to remove unbound antibody. In order to quantify the amount of bound antibody, peroxidase substrate is added and produces a color that can be measured at 450 nm.
On day −1, Kuramochi cells (Sekisui XenoTech JCRB0098) were seeded at 2,000 cells/well in columns 2-12 of a 96 well plate (Corning, CLS3596) in 150 μL media and allowed to adhere overnight at 37 degree with 5% CO2.
On day 0, the source plate was prepared by adding 10 mM compounds and performing 3-fold serial dilutions for a 10-point dose response of each compound. Using a multichannel pipette, 2 μL of the contents of the source plate were stamped into an intermediate plate with 500 μL of RPMI 1640 Media, GlutaMAX Supplement (Life Technologies, 61870127) in each well of a Nunc 96 DeepWell™ plate, non-treated 96 DeepWell plate, 2 mL/well, sterile, natural, 60/cs (Sigma Z717274) and mixed thoroughly. 50 μL from each well of this intermediate plate were added to 4 wells of a 96-well plate with previously seeded Kuramochi cells.
On day 4, the plates were developed using the BrdU ELISA Cell Proliferation Assay according to manufacturer's instructions (Roche, 11647229001). Briefly, BrdU was diluted 1:100 in Gibco®, OptiMEM® and 20 μL/well was added, shaken for 10 minutes at 350 rpm, and then returned to the incubator for 1 hour. Following incubation, the medium was discarded, and the cells were fixed by adding 200 μL of Fix/Denature solution. The anti-BrdU peroxidase antibody was diluted 1:1000 in OptiMEM, added at 100 μL/well, and incubated while shaking (350 rpm) for one hour. Three washes with PBS were performed to remove any unbound antibody, followed by the addition of 100 μL of substrate solution to each well. 25 μL/well of 1M sulfuric acid solution was then added to halt the reaction, and plates were read out using an Envision spectrophotometer (Perkin Elmer) set to read 450 nm absorbance. Background absorbance values from empty wells were subtracted from all samples and then normalized to DMSO treated wells.

| Structure (SMILES) | IC50 [µM] |
| --- | --- |
| CNC(=O)[C@@H](NC(=O)[C@H]1CN(C(=O)c2cnc[nH]2)CC12CN(C(=O)[C@H]1CC1(C)C)C2)[C@@H](C)OCc1ccccc1 [I-44B] | > 10 |
| CNC(=O)[C@@H](NC(=O)[C@@H]1CN(C(=O)c2ccccn2)CC12CN(C(=O)[C@H]1CC1(C)C)C2)[C@@H](C)OCc1ccccc1 [I-45A] | > 10 |
| CNC(=O)[C@@H](NC(=O)[C@H]1CN(C(=O)c2ccccn2)CC12CN(C(=O)[C@H]1CC1(C)C)C2)[C@@H](C)OCc1ccccc1 [I-45B] | > 10 |
| CNC(=O)[C@@H](NC(=O)[C@@H]1CN(C(=O)c2ccncc2)CC12CN(C(=O)[C@H]1CC1(C)C)C2)[C@@H](C)OCc1ccccc1 [I-46A] | > 10 |
| CNC(=O)[C@@H](NC(=O)[C@H]1CN(C(=O)c2ccncc2)CC12CN(C(=O)[C@H]1CC1(C)C)C2)[C@@H](C)OCc1ccccc1 [I-46B] | > 10 |
| CNC(=O)[C@@H](NC(=O)[C@@H]1CN(Cc2cnn(C)c2)CC12CN(C(=O)[C@H]1CC1(C)C)C2)[C@@H](C)OCc1ccccc1 [I-47A] | > 10 |
| CNC(=O)[C@@H](NC(=O)[C@@H]1CN(C(=O)Nc2cnn(Cc3ccccc3)c2)CC12CN(C(=O)[C@H]1CC1(C)C)C2)[C@@H](C)OCc1ccccc1 [I-48A, (S)—N6-(1-benzyl-1H-pyrazol-4-yl)-N8-((2S,3R)-3-(benzyloxy)-1-(methylamino)-1-oxobutan-2-yl)-2-((S)-2,2-dimethylcyclopropane-1-carbonyl)-2,6-diazaspiro[3.4]octane-6,8-dicarboxamide] | > 10 |
| CNC(=O)[C@@H](NC(=O)[C@H]1CN(C(=O)Nc2cnn(Cc3ccccc3)c2)CC12CN(C(=O)[C@H]1CC1(C)C)C2)[C@@H](C)OCc1ccccc1 [I-48B] | > 10 |
| CNC(=O)[C@@H](NC(=O)[C@H]1CN(Cc2cccnc2)CC12CN(C(=O)[C@H]1CC1(C)C)C2)[C@@H](C)OCc1ccccc1 [I-49B] | > 10 |
| CNC(=O)[C@@H](NC(=O)[C@@H]1CN(Cc2cn[nH]c2)CC12CN(C(=O)[C@H]1CC1(C)C)C2)[C@@H](C)OCc1ccccc1 [I-50A] | > 10 |
| CNC(=O)[C@@H](NC(=O)[C@H]1CN(Cc2cn[nH]c2)CC12CN(C(=O)[C@H]1CC1(C)C)C2)[C@@H](C)OCc1ccccc1 [I-50B] | > 10 |
| CNC(=O)[C@@H](NC(=O)[C@H]1CN(Cc2cncs2)CC12CN(C(=O)[C@H]1CC1(C)C)C2)[C@@H](C)OCc1ccccc1 [I-51B] | > 10 |
| CNC(=O)[C@@H](NC(=O)[C@@H]1CN(C(=O)c2cnn(CC3CC3)c2)CC12CN(C(=O)CC1CC1)C2)[C@@H](C)OCc1ccccc1 [I-53A] | > 10 |
| CNC(=O)[C@@H](NC(=O)[C@H]1CN(C(=O)c2cnn(CC3CC3)c2)CC12CN(C(=O)CC1CC1)C2)[C@@H](C)OCc1ccccc1 [I-53B] | > 10 |
| CNC(=O)[C@@H](NC(=O)[C@@H]1CN(C(=O)c2cnn(Cc3ccccc3)c2)CC12CN(C(=O)C(C)C)C2)[C@@H](C)OCc1ccccc1 [I-54A] | > 10 |
| CNC(=O)[C@@H](NC(=O)[C@H]1CN(C(=O)c2cnn(Cc3ccccc3)c2)CC12CN(C(=O)C(C)C)C2)[C@@H](C)OCc1ccccc1 [I-54B] | > 10 |
| CNC(=O)[C@@H](NC(=O)[C@@H]1CN(Cc2ccncc2)CC12CN(C(=O)[C@H]1CC1(C)C)C2)[C@@H](C)OCc1ccccc1 [I-55A] | > 10 |
| CNC(=O)[C@@H](NC(=O)[C@H]1CN(Cc2ccncc2)CC12CN(C(=O)[C@H]1CC1(C)C)C2)[C@@H](C)OCc1ccccc1 [I-55B] | > 10 |
| CNC(=O)[C@@H](NC(=O)[C@@H]1CN(C(=O)c2cnn(Cc3ccccc3)c2)CC12CN(C(=O)CC1CC1)C2)[C@@H](C)OCC1CCCCC1 [I-56A] | > 10 |
| CNC(=O)[C@@H](NC(=O)[C@H]1CN(C(=O)c2cnn(Cc3ccccc3)c2)CC12CN(C(=O)CC1CC1)C2)[C@@H](C)OCC1CCCCC1 [I-56B] | > 10 |
| CC1(C)C[C@@H]1C(=O)N1CC2(CN(C(=O)c3cnn(Cc4ccccc4)c3)C[C@H]2C(=O)N2CCC(Cc3ccccc3)CC2)C1 [I-58A] | > 10 |
| CC1(C)C[C@@H]1C(=O)N1CC2(CN(C(=O)c3cnn(Cc4ccccc4)c3)C[C@@H]2C(=O)N2CCC(Cc3ccccc3)CC2)C1 [I-58B] | > 10 |
